Measured values as given in PMC4942611, “Promising Tools in Prostate Cancer Research: Selective Non-Steroidal Cytochrome P450 17A1 Inhibitors” (Scientific Reports, 2016).

Experiments:
[1] = Precipitation of compound in H295R exposure medium; assay type: physicochemical; settings: H295R assay medium, 0.1% DMSO
Description: This cellular assay was also used to evaluate inhibitor selectivity.
The H295R steroid hormone synthesis assay was performed according to the OECD validation guideline. Cells were cultured in DMEM/F12 media supplemented with 1% ITS-premix and 2.5% Nu-serum at 37 °C with a 5% CO2 atmosphere. The cells were only used for experiments between passage […]. During exposure experiments, cells were grown in 24 well plates with a density of 3 × 10^5 cells/mL. […] To avoid interference from low levels of steroid hormones present in the Nu-serum, the exposure experiment was conducted with serum-free media. Each compound was tested at a minimum of seven concentration levels using three or more replicates and the experiment was repeated on two different days (n = 6–15). On each test plate a solvent control (SC) (medium with 0.1% DMSO) was included in triplicate and the maximal concentration of DMSO in the cell medium was 0.1%[49]. After 48 hours of incubation in presence of the test compounds, 950 μL of the medium was carefully removed and internal standards (50 μl of 0.1 μg/μl solution containing deuterated steroid analogues) were added. Samples were stored at −20 °C for later analysis.

[2] = biological target: T1, human CYP17A1 (Homo sapiens, UniProt P05093); experiment: Progesterone 17α-hydroxylase inhibition with purified CYP17A1; assay type: biochemical; settings: for IC50: conversion of PRO to 17-OH-PRO, 10 μM progesterone, mean over 3 measurements ± standard error
T1 construct: bearing a truncation of the N-terminal helix; made in house
T1 sequence (P05093 with tags, fused parts or gaps limits assumed): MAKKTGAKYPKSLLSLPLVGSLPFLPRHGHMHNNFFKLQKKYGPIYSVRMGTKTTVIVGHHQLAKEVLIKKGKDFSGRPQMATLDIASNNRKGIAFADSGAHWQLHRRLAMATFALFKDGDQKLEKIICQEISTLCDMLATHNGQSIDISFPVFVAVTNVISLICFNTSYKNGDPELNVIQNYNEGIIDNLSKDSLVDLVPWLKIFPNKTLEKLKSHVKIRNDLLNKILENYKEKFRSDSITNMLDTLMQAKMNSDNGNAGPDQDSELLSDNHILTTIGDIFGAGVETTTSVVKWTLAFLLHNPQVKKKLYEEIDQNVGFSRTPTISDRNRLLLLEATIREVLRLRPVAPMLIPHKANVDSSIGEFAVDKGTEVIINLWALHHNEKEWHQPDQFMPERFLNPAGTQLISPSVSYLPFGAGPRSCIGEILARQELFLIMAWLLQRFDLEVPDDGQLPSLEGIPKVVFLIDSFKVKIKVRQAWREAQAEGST
Description: (§1) Purified cytochrome P450 17A1 (50 nmol) was incubated with truncated human cytochrome P450 reductase[48] and rat cytochrome b5 in a 1:4:0 or 1:4:4 ratio for hydroxylase and 17,20-lyase reactions, respectively. […] Reactions were initiated upon addition of 25 mM NADPH as the electron source. The hydroxylated product was quantified after HPLC using an UV detector and analyzed as previously published. The 17,20-lyase assay was performed similarly substituting 1.2 μM of 17α-hydroxypregnenolone as the substrate and inhibitor concentrations of 0–500 nM. The dehydroepiandrosterone product was quantitated using a coupled GC/MS method.

[3] = biological target: T1, human CYP17A1; experiment: UV-VIS ligand binding assay (spectral titration) with purified CYP17A1; settings: 100 nM purified CYP17A1, mean over 2 measurements ± standard error
Description: Direct coordination of nitrogen-containing heterocycles to the haem iron in the active site of cytochrome P450 enzymes causes a shift of the Soret peak λmax to higher wavelengths. Thus, UV-visible absorbance spectra were recorded as purified CYP17A1 was titrated with the 19 hit compounds. Addition of compounds 1–7 (cf. Fig. 2 and S3) yielded characteristic shifts in λmax from 417 nm to as high as 427 nm, typical of direct coordination to the haem iron. Plots of the changes in absorbance as a function of concentration can be used to evaluate ligand binding affinity. […] Compounds 6 and 7 have substantial intrinsic absorbance overlapping the range of the protein spectral change. Therefore the binding constants could not be determined for these latter two compounds.
Human CYP17A1 bearing a truncation of the N-terminal helix and a 4x histidine tag on the C-terminus was expressed and purified as previously reported.
Ligand binding was measured based on a change in UV-VIS absorbance (ΔA) upon ligand addition. Purified recombinant human cytochrome P450 enzymes (100 nM) were titrated with ligands dissolved in DMSO in 5 cm path length cuvettes. CYP17A1 and CYP21A2 were prepared in 50 mM Tris-HCl, pH 7.4, 500 mM NaCl, 20% (v/v) glycerol, and 100 mM glycine. The buffer used to prepare CYP21A2 also contained 50 mM DTT. CYP3A4 and CYP2D6 were prepared in 50 mM potassium phosphate, pH 7.4, 250 mM NaCl, 20% (v/v) glycerol and 1 mM EDTA. In each case, heteroatom coordination to the haem iron yields an increase in absorbance at ~420 nm and a corresponding decrease at ~390 nm. The apparent binding constant (Kd) and the maximum spectral change (ΔAmax) were calculated from a nonlinear least-squares regression fit to the tight binding equation (2) using GraphPad Prism 6.03.

[4] = biological target: T1, human CYP17A1; experiment: 17α-hydroxypregnenolone 17,20-lyase inhibition with purified CYP17A1; assay type: biochemical; settings: conversion of 17-OH-PRE into DHEA, 1.2 μM 17α-hydroxypregnenolone; mean over 3 measurements ± standard error
Description: as §1

[5] = test system: H295R cells; experiment: Cell viability, resazurin assay; assay type: cell-based, human
Text: Cell viability was confirmed with the resazurin assay, as described by Nielsen et al.[50].

Row | Structure (SMILES) | Concentration at which precipitation was observed [1] | IC50 [2] [nM] | Potency for 17α-hydroxylase inhibition relative to abiraterone (times less potent) ([2]; recombinant human CYP17A1) | Kd [3] [nM] | IC50 [4] [nM] | Concentration at which cells were not viable [5] [µM]
1 | Cc1ccc(-c2csc(-c3cccnc3)n2)c(C)c1 [Compound 1] | around 10 μM | 230 ± 20 | 2–3 times | < 100 | 500 ± 90 | 
2 | CCCn1nnc2cc(-c3cc(-c4ccncc4)c(C#N)c(N)n3)ccc21 [Compound 2] | 60 µM | 130 ± 10 |  | < 100 | 110 ± 20 | 
3 | C[C@]12CC[C@H](O)CC1=CC[C@@H]1[C@@H]2CC[C@]2(C)C(c3cccnc3)=CC[C@@H]12 [abiraterone, reference compound] |  | 92 ± 4 |  | < 100 | 36 ± 2 | 10
